Data as given in patent US11331289B2, “Antimicrobial composition” (priority 2017, dated 2022).

Tests used:
[1] = system: Methicillin-Resistant Staphylococcus aureus (MRSA) 16116, 16110; experiment: Oxyclo MIC of MRSA strains; format: cell-based
[2] = system: MRSA 16110; experiment: Time-killing curve, inoculum 5.10^5 CFU/ml (MIC 1 μg/ml); format: cell-based, Staphylococcus aureus
Description: (§1) The objective of this study is to assess in vitro the time-killing curves of oxyclozanide against four strains of Methicillin-Resistant Staphylococcus from dogs.
(§2) Two Methicillin-Resistant Staphylococcus aureus (MRSA) and two Methicillin-Resistant Staphylococcus pseudintermedius (MRSP) isolated from the clinics have been tested.
(§3) The assessment of time-killing curves has been realized by a broth macrodilution method (Mueller-Hinton II Broth).
(§4) Oxyclozanide is diluted in (DMSO) into sterile tubes in order to obtain the following concentrations from 800 to 6.25 μg/ml. Those concentrations and stock standard solution are then diluted (1/10) in Mueller-Hinton II Broth in order to obtain the following concentrations from […] (See Table 2).
(§5) Each operation is performed under sterile conditions. Each working standard solution (10*the final active ingredient concentration) is distributed in tubes (1 ml, for a final volume of 10 ml after addition of 9 ml of inoculum). One tube without active ingredient is used as growth control (Concentration=0).
(§6) Bacterial isolates are sub-cultured from one cryobead on Columbia agar supplemented with 5% of blood. Pure cultures are incubated during 18-24 hours at 37° C. Three to five isolated colonies of similar appearance are selected from a previous culture and transferred into tubes containing 9 ml of Mueller-Hinton II Broth. The broth is incubated during 12-18 hours at 37° C. 0.5 to 1 ml of this broth is inoculated to another Mueller-Hinton II Broth 9 ml tube which is incubated during 3 to 4 hours at 37° C. to reach the exponential growth phase. The bacterial inoculum grown exponential phase is suspended to an optical density of McFarland standard scale 0.5 equivalent to a bacterial density of 10^8 CFU/ml and then adjusted to a concentration of about 5.10^5 CFU/ml as indicated by the guideline CLSI M26-A and to a second inoculum tested: 10^6 CFU/ml.
(§7) 9 ml of bacterial inoculum grown to exponential phase is added to 1 ml of active ingredient (or Mueller Hinton II Broth for the growth control). Tubes are incubated at 35° C. during 24 hours.
(§8) At times 0, 2, 4, 6 and 24 hours, 100 μl of broth of each tube is sampled and diluted in microplates:
(§9) Each well is re-cultured by streaking 10 μl on Columbia agar supplemented with 5% of blood. Plates are incubated at 37° C. during 18-24 hours incubation. Thus, residual bacterial concentrations are determined (CFU/ml). Results are expressed in log10 values of CFU/ml over-time in broth. Due to the procedure used, the minimal bacterial concentration that can be assessed is 10^2 CFU/ml.

[3] = system: MRSP 16127; experiment: Time-killing curve, inoculum 5.10^5 CFU/ml (MIC 0.25 μg/ml); format: cell-based, Staphylococcus pseudintermedius
Description: as §1, §2, §3, §4, §5, §6, §7, §8, §9

[4] = system: MRSA 16110; experiment: Time-killing curve, inoculum 10^6 CFU/ml (MIC 1 μg/ml); format: cell-based, Staphylococcus aureus
Description: as §1, §2, §3, §4, §5, §6, §7, §8, §9

MIC ([1]; MRSA 16110): 1 µg/mL
MIC ([1]; MRSA 16116): 0.5 µg/mL
Compound: O=C(Nc1cc(Cl)cc(Cl)c1O)c1c(O)c(Cl)cc(Cl)c1Cl [Oxyclozanide]
Counting results ([2]; 1 MIC, 0 h): 4.100E+05 CFU/ml
Counting results ([2]; 1 MIC, 2 h): 9.300E+04 CFU/ml
Counting results ([2]; 1 MIC, 4 h): 6.500E+04 CFU/ml
Counting results ([2]; 1 MIC, 6 h): 1.100E+05 CFU/ml
Counting results ([2]; 1 MIC, 24 h): 6.100E+05 CFU/ml
Counting results ([2]; 2 MIC, 0 h): 4.100E+05 CFU/ml
Counting results ([2]; 2 MIC, 2 h): 3.300E+03 CFU/ml
Counting results ([2]; 2 MIC, 4 h): 1.800E+03 CFU/ml
Counting results ([2]; 2 MIC, 6 h): 4.000E+02 CFU/ml
Counting results ([2]; 2 MIC, 24 h): 1.000E+02 CFU/ml
Counting results ([2]; 4 MIC, 0 h): 4.100E+05 CFU/ml
Counting results ([2]; 4 MIC, 2 h): 3.000E+02 CFU/ml
Counting results ([2]; 4 MIC, 4 h): 1.000E+02 CFU/ml
Counting results ([2]; 4 MIC, 6 h): 1.000E+02 CFU/ml
Counting results ([2]; 4 MIC, 24 h): 1.000E+02 CFU/ml
Counting results ([2]; 8 MIC, 0 h): 4.100E+05 CFU/ml
Counting results ([2]; 8 MIC, 2 h): 2.000E+02 CFU/ml
Counting results ([2]; 8 MIC, 4 h): 1.000E+02 CFU/ml
Counting results ([2]; 8 MIC, 6 h): 1.000E+02 CFU/ml
Counting results ([2]; 8 MIC, 24 h): 1.000E+02 CFU/ml
Counting results ([2]; 16 MIC, 0 h): 4.100E+05 CFU/ml
Counting results ([2]; 16 MIC, 2 h): 1.000E+02 CFU/ml
Counting results ([2]; 16 MIC, 4 h): 1.000E+02 CFU/ml
Counting results ([2]; 16 MIC, 6 h): 1.000E+02 CFU/ml
Counting results ([2]; 16 MIC, 24 h): 1.000E+02 CFU/ml
Time to obtain bactericidal effect at 4 MIC ([2]; 16110/5.10^5 CFU/ml, >=3 log10 decrease in CFU): 2 h
Counting results ([2]; ¼ MIC, 0 h): 4.100E+05 CFU/ml
Counting results ([2]; ¼ MIC, 2 h): 1.400E+06 CFU/ml
Counting results ([2]; ¼ MIC, 4 h): 9.500E+07 CFU/ml
Counting results ([2]; ¼ MIC, 6 h): 1.600E+08 CFU/ml
Counting results ([2]; ¼ MIC, 24 h): 1.100E+09 CFU/ml
Counting results ([2]; ½ MIC, 0 h): 4.100E+05 CFU/ml
Counting results ([2]; ½ MIC, 2 h): 6.300E+05 CFU/ml
Counting results ([2]; ½ MIC, 4 h): 9.900E+06 CFU/ml
Counting results ([2]; ½ MIC, 6 h): 3.100E+07 CFU/ml
Counting results ([2]; ½ MIC, 24 h): 1.900E+08 CFU/ml
Counting results ([3]; 1 MIC, 0 h): 3.600E+05 CFU/ml
Counting results ([3]; 1 MIC, 2 h): 2.300E+05 CFU/ml
Counting results ([3]; 1 MIC, 4 h): 1.900E+06 CFU/ml
Counting results ([3]; 1 MIC, 6 h): 4.600E+06 CFU/ml
Counting results ([3]; 1 MIC, 24 h): 8.100E+08 CFU/ml
Counting results ([3]; 2 MIC, 0 h): 3.600E+05 CFU/ml
Counting results ([3]; 2 MIC, 2 h): 2.000E+05 CFU/ml
Counting results ([3]; 2 MIC, 4 h): 2.400E+05 CFU/ml
Counting results ([3]; 2 MIC, 6 h): 2.400E+05 CFU/ml
Counting results ([3]; 2 MIC, 24 h): 6.600E+05 CFU/ml
Counting results ([3]; 4 MIC, 0 h): 3.600E+05 CFU/ml
Counting results ([3]; 4 MIC, 2 h): 1.400E+04 CFU/ml
Counting results ([3]; 4 MIC, 4 h): 4.400E+03 CFU/ml
Counting results ([3]; 4 MIC, 6 h): 3.500E+03 CFU/ml
Counting results ([3]; 4 MIC, 24 h): 1.300E+03 CFU/ml
Counting results ([3]; 8 MIC, 0 h): 3.600E+05 CFU/ml
Counting results ([3]; 8 MIC, 2 h): 1.600E+03 CFU/ml
Counting results ([3]; 8 MIC, 4 h): 4.000E+02 CFU/ml
Counting results ([3]; 8 MIC, 6 h): 1.000E+02 CFU/ml
Counting results ([3]; 8 MIC, 24 h): 1.000E+02 CFU/ml
Counting results ([3]; 16 MIC, 0 h): 3.600E+05 CFU/ml
Counting results ([3]; 16 MIC, 2 h): 3.000E+02 CFU/ml
Counting results ([3]; 16 MIC, 4 h): 1.000E+02 CFU/ml
Counting results ([3]; 16 MIC, 6 h): 1.000E+02 CFU/ml
Counting results ([3]; 16 MIC, 24 h): 1.000E+02 CFU/ml
Time to obtain bactericidal effect at 4 MIC ([3]; 16127/5.10^5 CFU/ml, >=3 log10 decrease in CFU): 6 to 24 h
Counting results ([3]; ¼ MIC, 0 h): 3.600E+05 CFU/ml
Counting results ([3]; ¼ MIC, 2 h): 3.900E+05 CFU/ml
Counting results ([3]; ¼ MIC, 4 h): 5.900E+06 CFU/ml
Counting results ([3]; ¼ MIC, 6 h): 3.400E+07 CFU/ml
Counting results ([3]; ¼ MIC, 24 h): 2.900E+10 CFU/ml
Counting results ([3]; ½ MIC, 0 h): 3.600E+05 CFU/ml
Counting results ([3]; ½ MIC, 2 h): 3.300E+05 CFU/ml
Counting results ([3]; ½ MIC, 4 h): 2.700E+06 CFU/ml
Counting results ([3]; ½ MIC, 6 h): 2.400E+07 CFU/ml
Counting results ([3]; ½ MIC, 24 h): 2.900E+10 CFU/ml
Counting results ([4]; 1 MIC, 0 h): 2.000E+06 CFU/ml
Counting results ([4]; 1 MIC, 2 h): 8.300E+04 CFU/ml
Counting results ([4]; 1 MIC, 4 h): 3.400E+04 CFU/ml
Counting results ([4]; 1 MIC, 6 h): 3.500E+03 CFU/ml
Counting results ([4]; 1 MIC, 24 h): 7.900E+06 CFU/ml
Counting results ([4]; 2 MIC, 0 h): 2.000E+06 CFU/ml
Counting results ([4]; 2 MIC, 2 h): 4.000E+02 CFU/ml
Counting results ([4]; 2 MIC, 4 h): 2.000E+02 CFU/ml
Counting results ([4]; 2 MIC, 6 h): 1.000E+02 CFU/ml
Counting results ([4]; 2 MIC, 24 h): 1.000E+02 CFU/ml
Counting results ([4]; 4 MIC, 0 h): 2.000E+06 CFU/ml
Counting results ([4]; 4 MIC, 2 h): 1.000E+02 CFU/ml
Counting results ([4]; 4 MIC, 4 h): 1.000E+02 CFU/ml
Counting results ([4]; 4 MIC, 6 h): 1.000E+02 CFU/ml
Counting results ([4]; 4 MIC, 24 h): 1.000E+02 CFU/ml
Counting results ([4]; 8 MIC, 0 h): 2.000E+06 CFU/ml
Counting results ([4]; 8 MIC, 2 h): 1.000E+02 CFU/ml
Counting results ([4]; 8 MIC, 4 h): 1.000E+02 CFU/ml
Counting results ([4]; 8 MIC, 6 h): 1.000E+02 CFU/ml
Counting results ([4]; 8 MIC, 24 h): 1.000E+02 CFU/ml
Counting results ([4]; 16 MIC, 0 h): 2.000E+06 CFU/ml
Counting results ([4]; 16 MIC, 2 h): 2.000E+02 CFU/ml
Counting results ([4]; 16 MIC, 4 h): 1.000E+02 CFU/ml
Counting results ([4]; 16 MIC, 6 h): 1.000E+02 CFU/ml
Counting results ([4]; 16 MIC, 24 h): 1.000E+02 CFU/ml
Time to obtain bactericidal effect at 4 MIC ([4]; 16110/10^6 CFU/ml, >=3 log10 decrease in CFU): 2 h
Counting results ([4]; ¼ MIC, 0 h): 2.000E+06 CFU/ml
Counting results ([4]; ¼ MIC, 2 h): 8.000E+06 CFU/ml
Counting results ([4]; ¼ MIC, 4 h): 4.000E+07 CFU/ml
Counting results ([4]; ¼ MIC, 6 h): 2.400E+07 CFU/ml
Counting results ([4]; ¼ MIC, 24 h): 4.100E+07 CFU/ml
Counting results ([4]; ½ MIC, 0 h): 2.000E+06 CFU/ml
Counting results ([4]; ½ MIC, 2 h): 6.900E+05 CFU/ml
Counting results ([4]; ½ MIC, 4 h): 4.300E+06 CFU/ml
Counting results ([4]; ½ MIC, 6 h): 4.800E+07 CFU/ml
Counting results ([4]; ½ MIC, 24 h): 3.700E+07 CFU/ml
